Measurements from US7473541B2, “Identification, cloning, expression, and purification of three novel human calcium-independent phospholipase A2 family members possessing triacylglycerol lipase and acylglycerol transacylase activities” (priority 2004, dated 2009).

Legend:
iPLA2epsilon = target: T1, iPLA2epsilon (Homo sapiens, UniProt Q9NST1, K434E); test: Triolein lipase activity inhibition by BEL; type: biochemical; settings: pre-incubated with 0.1-2 microM BEL prior to substrate
T1 construct: used as a template for PCR to obtain full-length CDNA for iPLA2epsilon; made in house; host or cells: Sf9 insect cells (baculovirus)
T1 sequence (Q9NST1 with tags, fused parts or gaps K434E): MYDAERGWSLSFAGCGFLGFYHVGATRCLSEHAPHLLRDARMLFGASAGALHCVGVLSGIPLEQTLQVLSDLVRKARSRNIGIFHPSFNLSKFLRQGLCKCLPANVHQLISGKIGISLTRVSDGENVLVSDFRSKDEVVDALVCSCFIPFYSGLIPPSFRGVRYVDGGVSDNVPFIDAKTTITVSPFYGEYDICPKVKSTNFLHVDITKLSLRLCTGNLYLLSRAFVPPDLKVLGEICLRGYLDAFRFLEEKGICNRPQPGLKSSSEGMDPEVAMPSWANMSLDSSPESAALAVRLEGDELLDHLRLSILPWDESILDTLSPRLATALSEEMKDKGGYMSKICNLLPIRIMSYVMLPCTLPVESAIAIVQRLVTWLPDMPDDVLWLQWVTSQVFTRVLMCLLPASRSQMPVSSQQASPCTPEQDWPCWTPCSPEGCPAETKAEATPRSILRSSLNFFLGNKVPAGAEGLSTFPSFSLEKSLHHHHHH
Protocol: (§1) Assay for Triolein Lipase Activity—Sample fractions were incubated in 85 mM potassium phosphate, pH 7.0 containing 2 mM EDTA and 2 mM DTT for 15 min at 37° C. in the presence of a suspension of 100 microM [9,10-^3H(N)]-triolein (100 microCi/micromol) in 25 microM egg yolk lecithin, and 100 microM sodium taurocholate. In some reactions, BEL was added at the indicated concentrations and incubated with enzyme at room temperature for 3 min prior to the addition of radiolabeled substrate. After extraction of radiolabeled reaction products and remaining substrate into butanol, samples were spotted on TLC plates, overlaid with oleic acid standard, dried, and developed in chloroformlmethanol/NH4OH (65:25:5). The region of the plate corresponding to the oleic acid standard (visualized by iodine staining) was scraped into scintillation vials and quantified by liquid scintillation spectrometry.
(§2) To determine whether the three new iPLA2 family members were inhibitable by BEL, each enzyme was pre-incubated with 0.1-2 microM BEL or ethanol vehicle alone prior to measuring triolein lipase activity (FIG. 5). […] Considering the hydrophobic nature of the acyl-glycerol substrates of iPLA2epsilon, iPLA2zeta, and iPLA2eta identified herein, it is not surprising that BEL would have access to the active sites of these enzymes.

iPLA2eta = target: T2, iPLA2eta (Homo sapiens, UniProt P41247); test: Triolein lipase activity inhibition by BEL; type: biochemical; settings: pre-incubated with 0.1-2 microM BEL prior to substrate
T2 construct: Full-length human iPLA2zeta (TTS-2.2) and iPLA2eta (GS2) were amplified by PCR; made in house; host or cells: Sf9 insect cells (baculovirus)
T2 sequence (P41247 1-253): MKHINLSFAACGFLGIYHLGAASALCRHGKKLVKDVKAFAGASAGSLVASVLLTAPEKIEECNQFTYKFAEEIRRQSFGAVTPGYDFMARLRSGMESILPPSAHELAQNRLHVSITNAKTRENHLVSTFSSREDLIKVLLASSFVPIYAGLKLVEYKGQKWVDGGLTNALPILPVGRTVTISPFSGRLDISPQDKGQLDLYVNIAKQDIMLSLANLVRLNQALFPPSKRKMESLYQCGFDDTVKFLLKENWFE
Protocol: as §1, §2

iPLA2zeta = target: T3, iPLA2zeta (Homo sapiens, UniProt Q96AD5, L481P); test: Triolein lipase activity inhibition by BEL; type: biochemical; settings: pre-incubated with 0.1-2 microM BEL prior to substrate
T3 construct: Full-length human iPLA2zeta (TTS-2.2) and iPLA2eta (GS2) were amplified by PCR; made in house; host or cells: Sf9 insect cells (baculovirus)
T3 sequence (Q96AD5 with tags, fused parts or gaps L481P): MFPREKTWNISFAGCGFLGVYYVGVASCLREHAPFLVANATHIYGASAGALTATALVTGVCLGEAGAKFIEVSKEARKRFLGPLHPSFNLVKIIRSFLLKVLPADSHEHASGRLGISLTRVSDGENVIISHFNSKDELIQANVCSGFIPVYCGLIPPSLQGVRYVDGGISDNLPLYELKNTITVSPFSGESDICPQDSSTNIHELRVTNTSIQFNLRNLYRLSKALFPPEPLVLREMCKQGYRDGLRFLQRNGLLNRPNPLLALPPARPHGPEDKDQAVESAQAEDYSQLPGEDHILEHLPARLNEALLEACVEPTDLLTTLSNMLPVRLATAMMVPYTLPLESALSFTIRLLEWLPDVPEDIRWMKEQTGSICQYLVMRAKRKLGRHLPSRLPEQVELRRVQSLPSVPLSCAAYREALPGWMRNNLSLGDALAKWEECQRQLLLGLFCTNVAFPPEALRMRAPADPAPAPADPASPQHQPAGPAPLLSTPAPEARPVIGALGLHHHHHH
Protocol: as §1, §2

[1] = target: iPLA2epsilon, iPLA2zeta, and iPLA2eta; test: Triglyceride lipase activity inhibition, summary over the three isoforms; type: biochemical, human; settings: range over iPLA2epsilon, zeta, eta; read-out: IC50, triglyceride lipase activity of each of the three isoforms
Protocol: as §1

iPLA2beta = target: T4, iPLA2beta (Homo sapiens, UniProt O60733); settings: previously demonstrated (refs 37-39); cited from earlier work
T4 sequence (O60733 1-806): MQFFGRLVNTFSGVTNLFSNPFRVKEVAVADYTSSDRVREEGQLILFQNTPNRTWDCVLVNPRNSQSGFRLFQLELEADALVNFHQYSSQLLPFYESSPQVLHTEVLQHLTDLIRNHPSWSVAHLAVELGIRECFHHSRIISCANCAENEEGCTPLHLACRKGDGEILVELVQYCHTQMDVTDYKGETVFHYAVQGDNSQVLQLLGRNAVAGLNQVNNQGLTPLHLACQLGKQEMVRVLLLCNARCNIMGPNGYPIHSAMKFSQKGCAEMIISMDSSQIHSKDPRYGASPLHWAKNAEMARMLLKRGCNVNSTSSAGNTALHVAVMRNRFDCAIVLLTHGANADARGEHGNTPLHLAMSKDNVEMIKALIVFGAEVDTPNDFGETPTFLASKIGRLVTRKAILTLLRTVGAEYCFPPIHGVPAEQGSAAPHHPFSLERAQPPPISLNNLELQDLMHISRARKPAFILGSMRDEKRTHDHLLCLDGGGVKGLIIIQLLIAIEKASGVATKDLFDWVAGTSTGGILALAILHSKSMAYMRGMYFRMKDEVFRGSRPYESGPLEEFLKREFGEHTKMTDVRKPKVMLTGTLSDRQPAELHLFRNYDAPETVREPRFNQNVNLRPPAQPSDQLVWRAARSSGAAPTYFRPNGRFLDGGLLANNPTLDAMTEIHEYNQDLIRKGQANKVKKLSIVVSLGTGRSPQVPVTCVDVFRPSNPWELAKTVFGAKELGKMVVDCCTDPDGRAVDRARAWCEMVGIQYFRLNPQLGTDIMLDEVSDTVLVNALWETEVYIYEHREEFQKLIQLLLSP

iPLA2gamma = target: T5, iPLA2gamma (Homo sapiens, UniProt Q9NP80); settings: previously demonstrated (refs 37-39); cited from earlier work
T5 sequence (Q9NP80 1-782): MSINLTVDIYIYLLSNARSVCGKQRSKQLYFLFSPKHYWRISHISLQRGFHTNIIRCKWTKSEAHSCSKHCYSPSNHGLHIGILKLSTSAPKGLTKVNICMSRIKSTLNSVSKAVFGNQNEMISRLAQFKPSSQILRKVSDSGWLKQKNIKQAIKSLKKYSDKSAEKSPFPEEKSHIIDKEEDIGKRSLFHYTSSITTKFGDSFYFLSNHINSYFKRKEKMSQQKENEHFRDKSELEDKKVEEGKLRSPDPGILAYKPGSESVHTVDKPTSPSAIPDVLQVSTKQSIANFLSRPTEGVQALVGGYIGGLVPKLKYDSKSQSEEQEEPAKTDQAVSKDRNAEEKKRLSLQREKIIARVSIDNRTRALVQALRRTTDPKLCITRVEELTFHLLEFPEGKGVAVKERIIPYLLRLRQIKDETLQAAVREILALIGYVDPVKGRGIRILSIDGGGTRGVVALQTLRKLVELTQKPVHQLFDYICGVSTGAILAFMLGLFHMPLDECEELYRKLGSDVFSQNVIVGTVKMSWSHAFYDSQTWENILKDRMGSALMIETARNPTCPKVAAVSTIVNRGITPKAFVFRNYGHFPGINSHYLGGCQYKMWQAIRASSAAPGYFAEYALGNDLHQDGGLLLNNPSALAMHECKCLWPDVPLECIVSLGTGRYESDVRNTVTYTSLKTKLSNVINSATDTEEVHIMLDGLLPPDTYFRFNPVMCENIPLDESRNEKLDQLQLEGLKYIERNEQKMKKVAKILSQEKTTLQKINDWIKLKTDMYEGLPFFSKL

In the case of `O=C1O/C(=C/Br)CCC1c1cccc2ccccc12` (stereo not drawn) [BEL, (E)-6-(bromomethylene)-3-(1-naphthalenyl)-2H-tetrahydropyran-2-one], the IC50 (iPLA2epsilon) is reported as roughly 100 nM, the IC50 (iPLA2eta) is reported as roughly 100 nM and the IC50 (iPLA2zeta) is reported as roughly 500 nM. For the same compound, the IC50 [1] was 100 to 500 nM, the “inhibition of iPLA2beta activity” value (iPLA2beta) was “sub to low micromolar concentrations” and the “inhibition of iPLA2gamma activity” value (iPLA2gamma) was “sub to low micromolar concentrations”.
